Results as given in patent publication US20260373226A1, “METHODS AND COMPOSITIONS FOR THE TREATMENT OF NEURODEGENERATIVE DISEASE” (Stealth BioTherapeutics Inc., priority 2022, published 2026).

Tests used:
[1] = Tolerability in nonhuman primates, 10 daily SC injections; assay type: in vivo, cynomolgus monkey; settings: 10 days
Procedure: Pharmacokinetic profile of SBT-272 in nonhuman primate plasma, CSF, and brain. The objective of this study was to determine the pharmacokinetic profile of SBT-272 in CSF and plasma when delivered by subcutaneous (SC) injection for 10 days to cynomolgus monkeys. SBT-272 solution was administered daily by SC injection for 10 days. The following parameters and endpoints were evaluated in this study: mortality, clinical observations, body weights, pharmacokinetic samples (CSF and plasma), and selected tissue collection. There was no mortality during the study. […] Additional details regarding the experimental protocol are provided below.
Test System. Details Regarding the Test System are Provided Below: • Species: Nonhuman primate • Strain/Breed: Cynomolgus monkey • Animal Condition: Non-naïve • Animal Procurement Method: In-house colony • Animal Supplier: Charles River Laboratories • Animal Supplier Location: 531 Boul des Prairies, Laval, QC H7V 1B7, Canada • Animal Origin: Asia • Number of Males: 3 • Age at the Initiation of Dosing: 18 to 60 months • Weight at the Initiation of Dosing: 1.4 to 5.0 kg
• Route of Administration: Subcutaneous injection into the scapular and mid-dorsal areas • Treatment Frequency: Daily • Treatment Duration: 10 days • Method: The first day of dosing is designated as Day 1. Dose formulations are allowed to warm up at ambient temperature for at least 30 minutes prior to dosing, as appropriate. The animals are temporarily restrained for dose administration and are not be sedated. The volume for each dose is administered over 1 (preferred) or 2 (as necessary) separate injections within the designated area. Injection sites are rotated daily (see FIG. 4B). If a designated subcutaneous test site is not available for a given animal on any day, then the next available test site in the rotation should be used for dosing. The injection area is marked as frequently as required to allow appropriate visualization of administration sites. Hair may be clipped or shaved if required to improve visualization of the injection sites. […]

[2] = Brain exposure PK in rats after single SC dose; assay type: in vivo; settings: rat; single 5 mg/kg SC
Procedure: FIG. 2A is a chart showing the in vivo pharmacokinetic (PK) and pharmacodynamic (PD) response to SBT-272 brain exposure in rats. Rat brain SBT-272 concentrations up to 36 hours after a single dose of SBT-272 (5 mg/kg; subcutaneous (SC); n=8 rats per time-point).
Evaluation of SBT-272 exposure in brain tissues after subcutaneous dosing. Brain tissues were collected, at various time points (see FIG. 2A) following a single 5 mg/kg subcutaneous (SC) administration of SBT-272 (n=8 rats per time point).
Briefly, issues samples were weighed in 2 mL microcentrifuge tubes (micro tube 2 mL, low protein binding, with screw cap, REF 72.694.600 (Sarstedt, Germany), weight of tissues was recorded in the study file. The centrifuge tubes were kept on ice throughout the procedure. Four times tissue weight purified deionized water with 0.1% formic acid (v/w) was added. Two metal beads were placed in each microcentrifuge tube (Metal Bead Lysing Matrix Bulk, MP, USA). Brain tissues were homogenized using Bead Ruptor (Omni International, USA) for 60 seconds using a speed of […] per cycle. Homogenates (96 μL) were transferred to […] microcentrifuge tubes with surface that minimized binding (REF 04-212-3500, Nerbe Plus, Germany). Homogenates were frozen and kept at −80 °C until sample extraction for LC/MS/MS analysis. Two samples (twice 96 μL) collected, one kept if repeat required. […]

For `Cc1cc(O)cc(C)c1C[C@H](NC(=O)[C@H](N)CCCNC(=N)N)C(=O)N[C@@H](CCCCN)c1nc(Cc2ccccc2)no1` [SBT-272, (R)-2-amino-N—((S)-1-(((S)-5-amino-1-(3-benzyl-1,2,4-oxadiazol-5-yl)pentyl)amino)-3-(4-hydroxy-2,6-dimethylphenyl)-1-oxopropan-2-yl)-5-guanidinopentanamide], the “body weight differences related to administration” value ([1]; 5 mg/kg/day SC) was “no differences in body weights”, the mortality ([1]; 5 mg/kg/day SC) was “no mortality” and the tolerability ([1]; SC injection at 5 mg/kg/day) was “well tolerated”. The “brain penetration / biodistribution across the blood-brain-barrier” value [2] was “brain penetrant and exhibited optimized biodistribution across the blood-brain-barrier”.
